Columns and labels:
[1] = test system: barnyardgrass (Echinochloa crus-galli); experiment: Test A preemergence, visual injury rating 0-100 (0 no effect, 100 complete control); format: in vivo; details: for Barnyardgrass plant response rating (0 to 100 scale): 125 g ai/ha
From the text: (§1) Seeds of plant species selected from barnyardgrass (Echinochloa crus-galli), kochia (Kochia scoparia), ragweed (common ragweed, Ambrosia elatior), ryegrass, Italian (Italian ryegrass, Lolium multiflorum), foxtail, giant (giant foxtail, Setaria faberii), foxtail, green (green foxtail, Setaria viridis), and pigweed (Amaranthus retroflexus) were planted into a blend of loam soil and sand and treated preemergence with a directed soil spray using test chemicals formulated in a non-phytotoxic solvent mixture which included a surfactant.
(§2) At the same time, plants selected from these weed species and also wheat (Triticum aestivum), corn (Zea mays), blackgrass (Alopecurus myosuroides), and galium (catchweed bedstraw, Galium aparine) were planted in pots containing the same blend of loam soil and sand and treated with postemergence applications of test chemicals formulated in the same manner. Plants ranged in height from 2 to 10 cm and were in the one- to two-leaf stage for the postemergence treatment. Treated plants and untreated controls were maintained in a greenhouse for approximately 10 days, after which time all treated plants were compared to untreated controls and visually evaluated for injury. […] A dash (-) response means no test result.

[2] = test system: foxtail, giant (giant foxtail, Setaria faberii); experiment: Test A preemergence, visual injury rating 0-100; format: in vivo; details: for Foxtail, Giant plant response rating (0 to 100 scale): 125 g ai/ha
From the text: as §1, §2

kochia (Kochia scoparia) [3] = experiment: Test A preemergence, visual injury rating 0-100; format: in vivo; details: for Kochia plant response rating (0 to 100 scale): 125 g ai/ha
From the text: as §1, §2

[4] = test system: pigweed (Amaranthus retroflexus); experiment: Test A preemergence, visual injury rating 0-100; format: in vivo; details: for Pigweed plant response rating (0 to 100 scale): 125 g ai/ha
From the text: as §1, §2

[5] = test system: ragweed (common ragweed, Ambrosia elatior); experiment: Test A preemergence, visual injury rating 0-100; format: in vivo; details: for Ragweed plant response rating (0 to 100 scale): 125 g ai/ha
From the text: as §1, §2

[6] = test system: ryegrass, Italian (Italian ryegrass, Lolium multiflorum); experiment: Test A preemergence, visual injury rating 0-100; format: in vivo; details: for Ryegrass, Italian plant response rating (0 to 100 scale): 125 g ai/ha
From the text: as §1, §2

[7] = test system: barnyardgrass (Echinochloa crus-galli); experiment: Test A postemergence, visual injury rating 0-100; format: in vivo; details: 0 to 100 scale
From the text: as §1, §2

[8] = test system: blackgrass (Alopecurus myosuroides); experiment: Test A postemergence, visual injury rating 0-100; format: in vivo; details: 0 to 100 scale
From the text: as §1, §2

corn (Zea mays) = experiment: Test A postemergence, visual injury rating 0-100; format: in vivo; details: 0 to 100 scale
From the text: as §1, §2

[9] = test system: foxtail, giant (giant foxtail, Setaria faberii); experiment: Test A postemergence, visual injury rating 0-100; format: in vivo; details: 0 to 100 scale
From the text: as §1, §2

[10] = test system: galium (catchweed bedstraw, Galium aparine); experiment: Test A postemergence, visual injury rating 0-100; format: in vivo; details: 0 to 100 scale
From the text: as §1, §2

kochia (Kochia scoparia) [11] = experiment: Test A postemergence, visual injury rating 0-100; format: in vivo; details: 0 to 100 scale
From the text: as §1, §2

[12] = test system: pigweed (Amaranthus retroflexus); experiment: Test A postemergence, visual injury rating 0-100; format: in vivo; details: 0 to 100 scale
From the text: as §1, §2

[13] = test system: ragweed (common ragweed, Ambrosia elatior); experiment: Test A postemergence, visual injury rating 0-100; format: in vivo; details: 0 to 100 scale
From the text: as §1, §2

[14] = test system: ryegrass, Italian (Italian ryegrass, Lolium multiflorum); experiment: Test A postemergence, visual injury rating 0-100; format: in vivo; details: 0 to 100 scale
From the text: as §1, §2

[15] = test system: wheat (Triticum aestivum); experiment: Test A postemergence, visual injury rating 0-100; format: in vivo; details: 0 to 100 scale
From the text: as §1, §2

[16] = test system: ducksalad (Heteranthera limosa); experiment: Test B flooded paddy test, visual rating 0-100; details: Flood, 250 g ai/ha, applied to paddy water, rated after 13 to 15 days
[17] = test system: barnyardgrass (Echinochloa crus-galli); experiment: Test B flooded paddy test, visual rating 0-100; details: Flood, 250 g ai/ha, applied to paddy water, rated after 13 to 15 days
rice (Oryza sativa) = experiment: Test B flooded paddy test, visual rating 0-100 (0 no effect, 100 complete control); details: Flood, 250 g ai/ha, applied to paddy water, rated after 13 to 15 days
[18] = 31 g ai/ha, 0 to 100 scale (0 no effect, 100 complete control), approx. 10 days

| SMILES | Barnyardgrass plant response rating (0 to 100 scale) [1] | Foxtail, Giant plant response rating (0 to 100 scale) [2] | Kochia plant response rating (0 to 100 scale) (kochia (Kochia scoparia) [3]) | Pigweed plant response rating (0 to 100 scale) [4] | Ragweed plant response rating (0 to 100 scale) [5] | Ryegrass, Italian plant response rating (0 to 100 scale) [6] | Barnyardgrass plant response rating ([7]; 125 g ai/ha) | Blackgrass plant response rating ([8]; 125 g ai/ha) | Corn plant response rating (corn (Zea mays); 125 g ai/ha) | Foxtail, Giant plant response rating ([9]; 125 g ai/ha) | Galium plant response rating ([10]; 125 g ai/ha) | Kochia plant response rating (kochia (Kochia scoparia) [11]; 125 g ai/ha) | Pigweed plant response rating ([12]; 125 g ai/ha) | Ragweed plant response rating ([13]; 125 g ai/ha) | Ryegrass, Italian plant response rating ([14]; 125 g ai/ha) | Wheat plant response rating ([15]; 125 g ai/ha) | Ducksalad plant response rating (0 to 100 scale) [16] | Barnyardgrass plant response rating (0 to 100 scale) [17] | Rice plant response rating (0 to 100 scale) (rice (Oryza sativa)) | also measured |
| --- | --- | --- | --- | --- | --- | --- | --- | --- | --- | --- | --- | --- | --- | --- | --- | --- | --- | --- | --- | --- |
| CC1=[N+]([O-])C(C(=O)Nc2cccc(F)c2F)C(c2ccc(F)cc2)C1 (racemic) [Compound 9] | 90 | 90 | 0 | 30 | 90 | 0 | 40 | 0 | 0 | 50 | 30 | 0 | 20 | 0 | 0 | 0 | 100 | 85 | 0 | Barnyardgrass plant response rating [1, 18]: 30; Foxtail, Giant plant response rating [2, 18]: 70; Kochia plant response rating (kochia (Kochia scoparia) [3]; [18]): 0; Pigweed plant response rating [4, 18]: 0; Ragweed plant response rating [5, 18]: 0; Ryegrass, Italian plant response rating [6, 18]: 0; Barnyardgrass plant response rating ([7]; 31 g ai/ha): 10; Blackgrass plant response rating ([8]; 31 g ai/ha): 0; Corn plant response rating (corn (Zea mays); 31 g ai/ha): 0; Foxtail, Giant plant response rating ([9]; 31 g ai/ha): 20; Galium plant response rating ([10]; 31 g ai/ha): 0; Kochia plant response rating (kochia (Kochia scoparia) [11]; 31 g ai/ha): 0; Pigweed plant response rating ([12]; 31 g ai/ha): 0; Ragweed plant response rating ([13]; 31 g ai/ha): 0; Ryegrass, Italian plant response rating ([14]; 31 g ai/ha): 0; Wheat plant response rating ([15]; 31 g ai/ha): 0 |
| CC1=[N+]([O-])C(C(=O)Nc2cccc(F)c2F)C(c2ccc(F)c(F)c2)C1 (racemic) [Compound 10] | 90 | 80 | 0 | 50 | 0 | 0 | 40 | 20 | 0 | 60 | 50 | 0 | 0 | 0 | 0 | 0 | 100 | 85 | 0 | Barnyardgrass plant response rating ([1]; 500 g ai/ha, 0 to 100 scale): 90; Foxtail, Giant plant response rating ([2]; 500 g ai/ha, 0 to 100 scale): 90; Kochia plant response rating (kochia (Kochia scoparia) [3]; 500 g ai/ha, 0 to 100 scale): 60; Pigweed plant response rating ([4]; 500 g ai/ha, 0 to 100 scale): 60; Ragweed plant response rating ([5]; 500 g ai/ha, 0 to 100 scale): 90; Ryegrass, Italian plant response rating ([6]; 500 g ai/ha, 0 to 100 scale): 60; Barnyardgrass plant response rating ([7]; 500 g ai/ha): 90; Blackgrass plant response rating ([8]; 500 g ai/ha): 30; Corn plant response rating (corn (Zea mays); 500 g ai/ha): 50; Foxtail, Giant plant response rating ([9]; 500 g ai/ha): 90; Galium plant response rating ([10]; 500 g ai/ha): 60; Kochia plant response rating (kochia (Kochia scoparia) [11]; 500 g ai/ha): 20; Pigweed plant response rating ([12]; 500 g ai/ha): 20; Ragweed plant response rating ([13]; 500 g ai/ha): 20; Ryegrass, Italian plant response rating ([14]; 500 g ai/ha): 0; Wheat plant response rating ([15]; 500 g ai/ha): 70 |
